The NIST ThermoML archive (doi:10.1016/j.jct.2014.06.012)

How the values were obtained:
[1] = Molar enthalpy of transition or fusion; settings: Adiabatic calorimetry
[2] = for molar entropy: 101.33 kPa; for Triple point temperature: Adiabatic calorimetry

O=P([O-])([O-])[O-].[Cs+].[Mn+2] [cesium manganese(II) phosphate]
Settings | Molar enthalpy of transition or fusion, [1] [kcal/mol] | Triple point temperature, [2] [K]
Crystal 2 | 0.038 | 127
Crystal 3 | 0.00306 | 6.9

[2]
Settings | molar entropy [J/K/mol]
5 K, Crystal 3, Vacuum adiabatic calorimetry | 0.572
6 K, Crystal 3, Vacuum adiabatic calorimetry | 0.9894
6.9 K, Crystal 2, Vacuum adiabatic calorimetry | 3.334
6.9 K, Crystal 3, Vacuum adiabatic calorimetry | 1.463
7 K, Crystal 2, Vacuum adiabatic calorimetry | 3.434
8 K, Crystal 2, Vacuum adiabatic calorimetry | 4.099
9 K, Crystal 2, Vacuum adiabatic calorimetry | 4.639
10 K, Crystal 2, Vacuum adiabatic calorimetry | 5.163
15 K, Crystal 2, Vacuum adiabatic calorimetry | 8.007
20 K, Crystal 2, Vacuum adiabatic calorimetry | 11.12
25 K, Crystal 2, Vacuum adiabatic calorimetry | 14.62
30 K, Crystal 2, Vacuum adiabatic calorimetry | 18.46
35 K, Crystal 2, Vacuum adiabatic calorimetry | 22.54
40 K, Crystal 2, Vacuum adiabatic calorimetry | 26.78
45 K, Crystal 2, Vacuum adiabatic calorimetry | 31.05
50 K, Crystal 2, Vacuum adiabatic calorimetry | 35.27
60 K, Crystal 2, Vacuum adiabatic calorimetry | 43.62
70 K, Crystal 2, Vacuum adiabatic calorimetry | 51.79
80 K, Crystal 2, Vacuum adiabatic calorimetry | 59.71
90 K, Crystal 2, Vacuum adiabatic calorimetry | 67.35
100 K, Crystal 2, Vacuum adiabatic calorimetry | 74.73
110 K, Crystal 2, Vacuum adiabatic calorimetry | 81.91
120 K, Crystal 2, Vacuum adiabatic calorimetry | 88.96
127 K, Crystal 1, Vacuum adiabatic calorimetry | 95.03
127 K, Crystal 2, Vacuum adiabatic calorimetry | 93.79
130 K, Crystal 1, Vacuum adiabatic calorimetry | 97.11
140 K, Crystal 1, Vacuum adiabatic calorimetry | 103.68
150 K, Crystal 1, Vacuum adiabatic calorimetry | 110.17
160 K, Crystal 1, Vacuum adiabatic calorimetry | 116.4
170 K, Crystal 1, Vacuum adiabatic calorimetry | 122.56
180 K, Crystal 1, Vacuum adiabatic calorimetry | 128.54
190 K, Crystal 1, Vacuum adiabatic calorimetry | 134.36
200 K, Crystal 1, Vacuum adiabatic calorimetry | 140.02
210 K, Crystal 1, Vacuum adiabatic calorimetry | 145.67
220 K, Crystal 1, Vacuum adiabatic calorimetry | 151.07
230 K, Crystal 1, Vacuum adiabatic calorimetry | 156.4
240 K, Crystal 1, Vacuum adiabatic calorimetry | 161.63
250 K, Crystal 1, Vacuum adiabatic calorimetry | 166.79
260 K, Crystal 1, Vacuum adiabatic calorimetry | 171.86
270 K, Crystal 1, Vacuum adiabatic calorimetry | 176.77
280 K, Crystal 1, Vacuum adiabatic calorimetry | 181.59
290 K, Crystal 1, Vacuum adiabatic calorimetry | 186.41
298.15 K, Crystal 1, Vacuum adiabatic calorimetry | 190.24
300 K, Crystal 1, Vacuum adiabatic calorimetry | 191.15
310 K, Crystal 1, Vacuum adiabatic calorimetry | 195.81
320 K, Crystal 1, Vacuum adiabatic calorimetry | 200.46
330 K, Crystal 1, Vacuum adiabatic calorimetry | 205.03
340 K, Crystal 1, Vacuum adiabatic calorimetry | 209.61
350 K, Crystal 1, Small sample (50 mg) DSC | 214.51
360 K, Crystal 1, Small sample (50 mg) DSC | 218.67
370 K, Crystal 1, Small sample (50 mg) DSC | 222.83
380 K, Crystal 1, Small sample (50 mg) DSC | 226.99
390 K, Crystal 1, Small sample (50 mg) DSC | 231.14
400 K, Crystal 1, Small sample (50 mg) DSC | 235.3
410 K, Crystal 1, Small sample (50 mg) DSC | 239.46
420 K, Crystal 1, Small sample (50 mg) DSC | 243.61
430 K, Crystal 1, Small sample (50 mg) DSC | 247.77
440 K, Crystal 1, Small sample (50 mg) DSC | 251.93
450 K, Crystal 1, Small sample (50 mg) DSC | 255.25
460 K, Crystal 1, Small sample (50 mg) DSC | 259.41
470 K, Crystal 1, Small sample (50 mg) DSC | 262.74
480 K, Crystal 1, Small sample (50 mg) DSC | 266.06
490 K, Crystal 1, Small sample (50 mg) DSC | 270.22
500 K, Crystal 1, Small sample (50 mg) DSC | 273.55
510 K, Crystal 1, Small sample (50 mg) DSC | 276.87
520 K, Crystal 1, Small sample (50 mg) DSC | 280.2
530 K, Crystal 1, Small sample (50 mg) DSC | 283.52
540 K, Crystal 1, Small sample (50 mg) DSC | 286.85
550 K, Crystal 1, Small sample (50 mg) DSC | 290.18
560 K, Crystal 1, Small sample (50 mg) DSC | 293.5
570 K, Crystal 1, Small sample (50 mg) DSC | 296.83
580 K, Crystal 1, Small sample (50 mg) DSC | 300.15
590 K, Crystal 1, Small sample (50 mg) DSC | 302.65
600 K, Crystal 1, Small sample (50 mg) DSC | 305.97
610 K, Crystal 1, Small sample (50 mg) DSC | 309.3
620 K, Crystal 1, Small sample (50 mg) DSC | 311.79
630 K, Crystal 1, Small sample (50 mg) DSC | 315.12
640 K, Crystal 1, Small sample (50 mg) DSC | 317.61
650 K, Crystal 1, Small sample (50 mg) DSC | 320.94
